# Results reported in patent publication US9932637B2, “Genetic polymorphisms associated with cardiovascular disorders and drug response, methods of detection and uses thereof” (CELERA CORPORATION, priority 2003, dated 2018).
# “And” between values parts separate entries of the source, which are not always exact repeats. Equal entries are not always repeated.
# Tested on: patients with prior myocardial infarction (CARE study)
# Assay: CARE aligned analysis (prospective and case/control design, white males): association of genotypes with pravastatin efficacy (Tables 13, 15)
# Assay type: in vivo, human
# Conditions: for Pravastatin vs placebo odds ratio, 1 rare allele / Pravastatin vs placebo odds ratio, 2 rare alleles / 2 rare alleles n/total (%), pravastatin patients / Pravastatin vs placebo odds ratio, 0 rare alleles: CARE, F MI/SD/NF MI; for Pravastatin Patients (%) / Pravastatin Patients n/total: F&NF MI, WM
# Method: The data presented in Table 8 based on an association of genotypes with pravastatin efficacy of the CARE samples were further analyzed and presented in Table 13. The further analysis was performed to align the data obtained from the analysis of the CARE samples, which was a prospective study, to the analysis of the WOSCOP samples, which was a case/control study. Table 13 also presents an analysis of the association of genotypes with pravastatin efficacy in the WOSCOPs samples. Relative to the analysis performed on the data presented in Table 8, there are two significant differences to determine if the SNP influenced pravastatin efficacy. Data obtained from the CARE samples were separated by study design into two groups, those in the prospective study design group and those in the case/control study design group. The original care study contained 16 protocol defined cardiovascular disease defined endpoints and 150 other phenotypes. […] The control groups used to compare the data were also divided into two groups, the “all possible” control group and the “cleaner” control group. […] Because the participants in the WOSCOPs trial were all white males, only data obtained from white males in the CARE study were analysed. Data from the “all possible” and “cleaner” controls were compared to data obtained from the cases in the prospective study design while only data from “cleaner” controls were compared to cases in the case/control study design. The data from the case/control cohorts were analysed using conditional logistic regression (as opposed to logistic regression used for the original anaylsis).
# The anaylsis was refined as described for both Tables 13 and 14.
# [1] = IL9 hCV3275199, 0 Rare Alleles, CARE Case/Control, All Possible controls
# [2] = IL9 hCV3275199, 0 Rare Alleles, CARE Case/Control, Cleaner controls
# [3] = IL9 hCV3275199, 0 Rare Alleles, CARE Prospective, All Possible controls
# [4] = IL9 hCV3275199, 0 Rare Alleles, CARE Prospective, Cleaner controls
# [5] = IL9 hCV3275199, 1 Rare Allele, CARE Case/Control, All Possible controls
# [6] = IL9 hCV3275199, 1 Rare Allele, CARE Case/Control, Cleaner controls
# [7] = IL9 hCV3275199, 1 Rare Allele, CARE Prospective, All Possible controls
# [8] = IL9 hCV3275199, 1 Rare Allele, CARE Prospective, Cleaner controls
# [9] = ITGA4 hCV7618856, 0 Rare Alleles, CARE Case/Control, Cleaner controls
# [10] = ITGA4 hCV7618856, 1 Rare Allele, CARE Case/Control, All Possible controls
# [11] = ITGA4 hCV7618856, 1 Rare Allele, CARE Case/Control, Cleaner controls
# [12] = ITGA4 hCV7618856, 1 Rare Allele, CARE Prospective, All Possible controls
# [13] = KDR hCV16192174, 0 Rare Alleles, CARE Case/Control, All Possible controls
# [14] = KDR hCV16192174, 0 Rare Alleles, CARE Case/Control, Cleaner controls
# [15] = KDR hCV16192174, 0 Rare Alleles, CARE Prospective, All Possible controls
# [16] = KDR hCV16192174, 0 Rare Alleles, CARE Prospective, Cleaner controls
# [17] = KDR hCV16192174, 1 Rare Allele, CARE Case/Control, All Possible controls
# [18] = KDR hCV16192174, 1 Rare Allele, CARE Case/Control, Cleaner controls
# [19] = KDR hCV16192174, 1 Rare Allele, CARE Prospective, All Possible controls
# [20] = KDR hCV16192174, 1 Rare Allele, CARE Prospective, Cleaner controls
# [21] = KDR hCV22271999, 0 Rare Alleles, CARE Case/Control, All Possible controls
# [22] = KDR hCV22271999, 0 Rare Alleles, CARE Case/Control, Cleaner controls
# [23] = KDR hCV22271999, 0 Rare Alleles, CARE Prospective, All Possible controls
# [24] = KDR hCV22271999, 0 Rare Alleles, CARE Prospective, Cleaner controls
# [25] = KDR hCV22271999, 1 Rare Allele, CARE Case/Control, All Possible controls
# [26] = KDR hCV22271999, 1 Rare Allele, CARE Case/Control, Cleaner controls
# [27] = KDR hCV22271999, 1 Rare Allele, CARE Prospective, All Possible controls
# [28] = KDR hCV22271999, 1 Rare Allele, CARE Prospective, Cleaner controls
structure (smiles),measurement,setting,value
CC[C@H](C)C(=O)O[C@H]1C[C@H](O)C=C2C=C[C@H](C)[C@H](CC[C@@H](O)C[C@@H](O)CC(=O)O)[C@H]21 [pravastatin],"Pravastatin vs placebo odds ratio, 1 rare allele","IL4R hCV2769554, Case/Control",0.74 and 0.64
same,"Pravastatin vs placebo odds ratio, 2 rare alleles","IL4R hCV2769554, Case/Control",1.66 and 1.52
same,Pravastatin Patients (%),[1],(12.4%)
same,Pravastatin Patients n/total,[1],111/896
same,Pravastatin Patients (%),[2],(17.5%)
same,Pravastatin Patients n/total,[2],111/633
same,Pravastatin Patients (%),[3],(12.2%)
same,Pravastatin Patients n/total,[3],111/911
same,Pravastatin Patients (%),[4],(17.2%)
same,Pravastatin Patients n/total,[4],111/644
same,Pravastatin Patients (%),[5],(5.3%)
same,Pravastatin Patients n/total,[5],15/283
same,Pravastatin Patients (%),[6],(8.2%)
same,Pravastatin Patients n/total,[6],15/184
same,Pravastatin Patients (%),[7],(5.2%)
same,Pravastatin Patients n/total,[7],15/290
same,Pravastatin Patients (%),[8],(8.0%)
same,Pravastatin Patients n/total,[8],15/187
same,Pravastatin Patients (%),"ITGA4 hCV7618856, 0 Rare Alleles, CARE Case/Control, All Possible controls",(10.1%)
same,Pravastatin Patients (%),[9],(14.7%)
same,Pravastatin Patients n/total,[9],120/817
same,Pravastatin Patients (%),"ITGA4 hCV7618856, 0 Rare Alleles, CARE Prospective, All Possible controls",(10.0%)
same,Pravastatin Patients (%),[10],(25.0%)
same,Pravastatin Patients n/total,[10],5/20
same,Pravastatin Patients (%),[11],(31.3%)
same,Pravastatin Patients n/total,[11],5/16
same,Pravastatin Patients (%),[12],(23.8%)
same,Pravastatin Patients n/total,[12],5/21
same,"2 rare alleles n/total (%), pravastatin patients","ITGAE hCV1243283, Case/Control",(8.0%)
same,"Pravastatin vs placebo odds ratio, 0 rare alleles","ITGAE hCV1243283, Case/Control",0.79
same,"Pravastatin vs placebo odds ratio, 1 rare allele","ITGAE hCV1243283, Case/Control",0.84
same,"Pravastatin vs placebo odds ratio, 2 rare alleles","ITGAE hCV1243283, Case/Control",0.24
same,Pravastatin Patients (%),[13],(9.0%)
same,Pravastatin Patients n/total,[13],87/971
same,Pravastatin Patients (%),[14],(13.1%)
same,Pravastatin Patients n/total,[14],87/666
same,Pravastatin Patients (%),[15],(8.8%)
same,Pravastatin Patients n/total,[15],87/985
same,Pravastatin Patients (%),[16],(12.9%)
same,Pravastatin Patients n/total,[16],87/675
same,Pravastatin Patients (%),[17],(17.2%)
same,Pravastatin Patients n/total,[17],39/227
same,Pravastatin Patients (%),[18],(23.9%)
same,Pravastatin Patients n/total,[18],39/163
same,Pravastatin Patients (%),[19],(16.6%)
same,Pravastatin Patients n/total,[19],39/235
same,Pravastatin Patients (%),[20],(23.2%)
same,Pravastatin Patients n/total,[20],39/168
same,"Pravastatin vs placebo odds ratio, 0 rare alleles","KDR hCV16192174, Case/Control",0.66 and 0.58
same,"Pravastatin vs placebo odds ratio, 1 rare allele","KDR hCV16192174, Case/Control",1.68
same,"Pravastatin vs placebo odds ratio, 2 rare alleles","KDR hCV16192174, Case/Control",0.41 and 0.35
same,"2 rare alleles n/total (%), pravastatin patients","KDR hCV16192174, Prospective",(10.0%)
same,"Pravastatin vs placebo odds ratio, 0 rare alleles","KDR hCV16192174, Prospective",0.61
same,"Pravastatin vs placebo odds ratio, 1 rare allele","KDR hCV16192174, Prospective",1.41
same,"Pravastatin vs placebo odds ratio, 2 rare alleles","KDR hCV16192174, Prospective",0.30
same,Pravastatin Patients (%),[21],(9.0%)
same,Pravastatin Patients n/total,[21],87/969
same,Pravastatin Patients (%),[22],(13.1%)
same,Pravastatin Patients n/total,[22],87/665
same,Pravastatin Patients (%),[23],(8.9%)
same,Pravastatin Patients n/total,[23],87/983
same,Pravastatin Patients (%),[24],(12.9%)
same,Pravastatin Patients n/total,[24],87/674
same,Pravastatin Patients (%),[25],(17.3%)
same,Pravastatin Patients n/total,[25],39/226
same,Pravastatin Patients (%),[26],(24.1%)
same,Pravastatin Patients n/total,[26],39/162
same,Pravastatin Patients (%),[27],(16.7%)
same,Pravastatin Patients n/total,[27],39/234
same,Pravastatin Patients (%),[28],(23.4%)
same,Pravastatin Patients n/total,[28],39/167
